The source of these data is the supplement of paper PMC10307832.

Common to all, as to test: relative viability (nuclei count vs DMSO), 5 days (fraction); higher = more cells survive
Compound in test [1]: CC1=C(C(=NN1)C)CC2=C(C3=C(S2)N(C(=O)N(C3=O)C)CC(C)C)C(=O)N4C[C@@H](CO4)O + CC(=O)c1c(C)c2cnc(Nc3ccc(N4CCNCC4)cn3)nc2n(C2CCCC2)c1=O [Palbociclib] (partner 0.5 µM)
An outline of the steps:
(§1)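 Relative viability is defined as nuclei in treated wells over nuclei in vehicle wells. Duplicate plates were run and medians reported. Lung cancer cell lines in 1536-well plates were dosed by pin tool one day after seeding, with one drug or with a fixed anchor-drug dose plus five library-drug doses (not always all listed) in √10 steps, and nuclei were counted after 5 days.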

Compound in test [2]: CC1=C(C(=NN1)C)CC2=C(C3=C(S2)N(C(=O)N(C3=O)C)CC(C)C)C(=O)N4C[C@@H](CO4)O + Cc1cc(Nc2cc(N3CCN(C)CC3)nc(Sc3ccc(NC(=O)C4CC4)cc3)n2)n[nH]1 [Tozasertib] (partner 0.1 µM)
An outline of the steps: as §1

Compound in a further test: Cc1ccccc1C(C(=O)NC1CCCCC1)N(C(=O)Cn1ccnc1C)c1cccc(F)c1 [IDH-C35]
The essentials:
(§2)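 Viability here means nuclei in treated wells divided by nuclei in vehicle wells, reported as the median across plates. Only plates with control CV below 25% and at least one doubling passed. Lung cancer cell lines in 1536-well plates were exposed to five √10-spaced library-drug doses for 5 days and counted from 4× Hoechst images in MetaXpress.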

Compound in test [3]: CC1=C(C(=NN1)C)CC2=C(C3=C(S2)N(C(=O)N(C3=O)C)CC(C)C)C(=O)N4C[C@@H](CO4)O
The essentials: as §2

Take UMC-11: the relative viability is 0.333 in test [1] (first compound 0.0025 µM); 0.31 in test [1] (first compound 0.007906 µM); 0.296 in test [1] (first compound 0.025 µM); 0.29 in test [1] (first compound 0.07906 µM); 0.339 in test [1] (first compound 0.25 µM); 0.199 in test [2] (first compound 0.0025 µM). The relative viability in test [2] (first compound 0.007906 µM) was 0.172; in test [2] (first compound 0.025 µM), 0.196; in test [2] (first compound 0.07906 µM) it was 0.207; in test [2] (first compound 0.25 µM) it was 0.175; with IDH-C35 (0.08 µM) it was 1.03; with IDH-C35 (0.253 µM), 0.975. Also, the relative viability in the test with IDH-C35 (0.8 µM) amounted to 0.986; with IDH-C35 (2.53 µM), 0.951; with IDH-C35 (8 µM) it was 1.02; in test [3] (0.0025 µM), 1.08; in test [3] (0.007906 µM) it was 1.04; in test [3] (0.025 µM), 0.974. Besides, the relative viability in test [3] (0.07906 µM) came out at 0.993; in test [3] (0.25 µM), 1.18.
